Our source for the Km values is publication PMC7923466, “Mining of two novel aldehyde dehydrogenases (DHY-SC-VUT5 and DHY-G-VUT7) from metagenome of hydrocarbon contaminated soils” (BMC Biotechnology, 2021).

One experiment relates to T1, DHY-SC-VUT5.
T1 construct: codon-optimised synthetic gene in pET-30a(+) (NdeI/HindIII), C-terminal 6xHis kept, E. coli BL21(DE3), Ni-NTA purified, ~51 kDa band
Nature of the experiment: NADH formation at […] nm, Michaelis-Menten fit (GraphPad Prism). The class given is biochemical, uncultured bacterium. The conditions noted are these: 50 mM NAD+, 50 mM Tris-HCl pH 8.0, 30 °C; hexanal 25-200 mM.

The next experiment concerns T2, DHY-G-VUT7.
T2 construct: codon-optimised synthetic gene in pET-30a(+) (NdeI/HindIII), C-terminal 6xHis kept, E. coli BL21(DE3), Ni-NTA purified, ~67 kDa band
Described as above. The conditions noted are these: 50 mM NAD+, 50 mM Tris-HCl pH 8.0, 30 °C; hexanal 25-200 mM. The class given is biochemical, metagenome: hydrocarbon contaminated soil.

What is called Km is the substrate concentration at which the rate is half of its maximum. As for `CCCCCC=O` [hexanal], the Km was determined as 13.8 mM in the experiment on DHY-SC-VUT5 and 2.83 mM in the experiment on DHY-G-VUT7.
